According to article PMC8845285, “Serotoninergic receptor ligands improve Tamoxifen effectiveness on breast cancer cells” (BMC Cancer, 2022):

Experiments:
Assay type in all cases: cell-based, human
[1] = test system: MCF7-R cells; assay: Tamoxifen-resistant MCF7-R cell viability, sulforhodamine B assay; conditions: up to 6 μM, E2 100 nM, 72 h
Experimental: (§1) Cells were fixed with 50% trichloroacetic acid for at least 2 h at 4 °C, washed with distilled and de-ionized water, air-dryed and stained 30 min with 0.4% sulforhodamine B in 1% acetic acid. Unbound dye was removed and 10 mM tris-HCl solution (pH 7.5) was added to dissolve the protein-bound dye. Cell survival was assessed by optical density determination at 510 nm using a microplate reader.
MCF7 cells were cultured for 4 months in phenol-red free medium supplemented with 10% (C/S) FBS and continuously exposed to Tamoxifen (1 μM). […] To further validate the degree of drug resistance, the expression levels of ABCC1, ABCG1 and ABCG2 – members of ABC transporter family known as involved in multi-drug resistance – were evaluated by Quantitative Real-Time PCR (qPCR; see below) upon cell treatment with 5 μM Tamoxifen for 72 h.
Fig. 9 Effect of SER79 and SER68 on Tamoxifen-resistant (MCF7-R) cells. a Estrogen starved MCF7-R were treated with SER79 (20 μM, 5 μM) or SER68 (20 μM) in presence of E2 (100 nM). b Estrogen-starved MCF7-R were treated with Tamoxifen (5 μM) in presence of E2 and SER79 (20 μM) or SER68 (20 μM). a,b As positive control, the cells were treated with E2 alone, in absence or in presence of SER (dotted line). After 72 h, cell viability was assessed by sulforhodamine B assay (see Methods). The results were reported as percentage of viable cells compared to positive control, considered as maximum viability (100%). c mRNA levels of CTGF were determined by qPCR (see Methods and Table 1) in MCF7-R cells upon treatment with SER68 (20 μM). Data were normalized on Ribosomal Protein S23 (Rps23) gene as internal standard and reported as CTGF mRNA levels in MCF7-R. a-c Graphs represent the mean ± SD of at least three independent triplicate experiments. * denotes statistically significant values compared with (b) positive control or (c) MCF7 cells (*adjp<0.05; **adjp<0.001). # denotes statistically significant values compared with untreated MCF7-R (#pval<0.05) […]
Figure S3. Establishment of MCF7 Tamoxifen re sista n t(M C F7-R) cells. MCF7 cells were cultured with Tamoxifen (1µM), in absence of E2, for 4 months (M C F7-R). (a-b) MCF7 and MCF7-R cells were treated with in c re a s in gconcentration of Tamoxifen […]
As positive control, cells were treated with E2 alone. Cell viability was measured by sulforhodamine B assay (se e Methods). The re su ltswere re p o rte das percentage of viable cells compared to untreated cells, considered as maximum viability (100%). […]
(a ) * denotes statistically significant values compared with untreated cells […]
(§2) (1 picture or pasted object on this page, not shown here)

[2] = test system: ABCC1, ABCG1 and ABCG2; assay: ABC transporter mRNA levels in MCF7-R cells, qPCR; conditions: Tamoxifen 5 μM, E2 100 nM, 72 h
Experimental: Total RNA was isolated from cells, quantified (NanoDrop spectrophotometer, Life Technologies, Carlsbad, CA, USA) and reverse transcribed according to the manufacturer’s instructions. Semiquantitative PCR and qPCR assays were performed according to manufacturer’s instructions for Bio-Rad T100 thermal cycler and CFX Connect Real Time system (Biorad, Hercules, CA, USA), respectively. Relative gene expression quantification was measured by 2^−ΔΔCt method normalizing for the reference sample using Rps23 (Ribosomal Protein S23) as housekeeping gene.
Cell viability was measured
as §2

[3] = test system: Tamoxifen-cultured MCF7 cells; assay: Tamoxifen-cultured MCF7 cell viability, sulforhodamine B assay; conditions: Tamoxifen 5 μM, E2 100 nM, 72 h
Experimental: as §1
To further investigate the effect of SER79 and SER68 on Tamoxifen responsiveness and CTGF expression in MCF7 cells, we obtained - by a continuous treatment of 10 days with 1 μM Tamoxifen – a cellular model less sensitive to the drug (Tamoxifen-cultured MCF7). We observed that 20 μM SER79, 20 μM and 40 μM SER68, while not 5 μM SER79, reduced viability of Tamoxifen-cultured MCF7 cells by about 40% (adjp<0.01; Fig. 8a). […] However, in the presence of 20 μM SER79, 20 μM and 40 μM SER68, Tamoxifen elicited a further 40% reduction of viability, similar to that achieved in Tamoxifen-responsive MCF7 cells (adjp<0.01; Fig. 8b).
Fig. 8 Effect of SER79 and SER68 on Tamoxifen-cultured MCF7 cells. MCF7 cells were cultured in presence of Tamoxifen (1 μM) for 10 days. Estrogen-starved MCF7 and Tamoxifen-cultured MCF7 cells (48 h) were (a-c) treated with SER79 (20 μM, 5 μM) or SER68 (40 μ, 20 μM), (b) treated with Tamoxifen (5 μM) in presence of SER79 (20 μM, 5 μM) or SER68 (40 μM, 20 μM). All treatments were carried out in presence of E2 (100 nM) for 72 h. As positive control, the cells were treated with (a-c) E2 alone or (b) E2 in absence or in presence of SER (as indicated, dotted line). a,b Cell viability was assessed by sulforhodamine B assay (see Methods). The results were reported as percentage of viable cells compared to positive control, considered as maximum viability (100%). c mRNA levels of CTGF were determined by qPCR (see Methods and Table 1). Data were normalized on Ribosomal Protein S23 (Rps23) gene as internal standard and reported as CTGF mRNA levels in Tamoxifen-cultured MCF7 relative to those in MCF7 cells (dotted line). a-c Graphs represent the mean ± SD of at least three independent triplicate experiments. * denotes statistically significant values compared with (a,b) positive control (*adjp<0.05, ** adjp<0.01) or (c) MCF7 cells (*pval<0.05); # denotes statistically significant values compared with (b) cells treated with Tamoxifen in absence of SER or (c) untreated Tamoxifen-cultured MCF7 cells (#pval<0.01, ##pval<0.0001)

SMILES: CC/C(=C(\c1ccccc1)c1ccc(OCCN(C)C)cc1)c1ccccc1 [Tamoxifen]
- effect of Tamoxifen on MCF7-R cell viability [1]: did not reduce
- mRNA levels of ABCC1, ABCG1 and ABCG2 in Tamoxifen-treated MCF7-R cells [2]: higher
- effect of Tamoxifen treatment alone on viability of Tamoxifen-cultured MCF7 cells [3]: did not affect viability
